Experimental data reported in PubChem BioAssay AID2060498 (Molecular Pharmacology Branch, DTP, NCI, 2025).

Test system: 171881-019-R-J1-PDC tumor spheroids, viability
Experiment: Anticancer human tumor 171881-019-R-J1-PDC patient-derived invasive breast carcinoma cell line growth inhibition [GQUAD]
Conditions: spheroids with HUVEC and MSC; for IC50: curve of first compound; for viability, T/C: stronger effect = lower value
Summary of the method: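 Multi-cell-type spheroids of tumor cells with HUVEC and mesenchymal stem cells, treated with drug combinations. Concentrations descend in half-log steps from near clinical Cmax, or from 10 microM where Cmax is unknown; viability read-out.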

[1] = second compound 0.0316 µM, first compound 0.0316 µM
[2] = second compound 0.0316 µM, first compound 0.1 µM
[3] = second compound 0.0316 µM, first compound 0.316 µM
[4] = second compound 0.0316 µM, first compound 1 µM
[5] = second compound 0.0316 µM, first compound 3.16 µM
[6] = second compound 0.0316 µM, first compound 10 µM
[7] = second compound 0.1 µM, first compound 0.0316 µM
[8] = second compound 0.1 µM, first compound 0.1 µM
[9] = second compound 0.1 µM, first compound 0.316 µM
[10] = second compound 0.1 µM, first compound 1 µM
[11] = second compound 0.1 µM, first compound 3.16 µM
[12] = second compound 0.1 µM, first compound 10 µM
[13] = second compound 0.316 µM, first compound 0.0316 µM
[14] = second compound 0.316 µM, first compound 0.1 µM
[15] = second compound 0.316 µM, first compound 0.316 µM
[16] = second compound 0.316 µM, first compound 1 µM
[17] = second compound 0.316 µM, first compound 3.16 µM
[18] = second compound 0.316 µM, first compound 10 µM
[19] = second compound 1 µM, first compound 0.0316 µM
[20] = second compound 1 µM, first compound 0.1 µM
[21] = second compound 1 µM, first compound 0.316 µM
[22] = second compound 1 µM, first compound 1 µM
[23] = second compound 1 µM, first compound 3.16 µM
[24] = second compound 1 µM, first compound 10 µM
[25] = second compound 3.16 µM, first compound 0.0316 µM
[26] = second compound 3.16 µM, first compound 0.1 µM
[27] = second compound 3.16 µM, first compound 0.316 µM
[28] = second compound 3.16 µM, first compound 1 µM
[29] = second compound 3.16 µM, first compound 3.16 µM
[30] = second compound 3.16 µM, first compound 10 µM
[31] = second compound 10 µM, first compound 0.0316 µM
[32] = second compound 10 µM, first compound 0.1 µM
[33] = second compound 10 µM, first compound 0.316 µM
[34] = second compound 10 µM, first compound 1 µM
[35] = second compound 10 µM, first compound 3.16 µM
[36] = second compound 10 µM, first compound 10 µM
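Also: spheroids exposed to compounds for 7 days.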
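For viability, T/C in this document: 100% = DMSO vehicle control viability.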

C=CC(=O)N1CCN(c2nc(=O)n(-c3c(C)ccnc3C(C)C)c3nc(-c4c(O)cccc4F)c(F)cc23)C(C)C1 (stereo unspecified) + Cc1[nH]c2ccc(F)cc2c1-c1nc2c3cccnc3c3ncccc3c2[nH]1
IC50 (second compound 0.0316 µM): 9.2 µM
IC50 (second compound 0.1 µM): 9.55 µM
IC50 (second compound 0.316 µM): 8.67 µM
IC50 (second compound 1 µM): 7.98 µM
IC50 (second compound 3.16 µM): < 0.0316 µM
IC50 (second compound 10 µM): < 0.0316 µM
viability, T/C [1]: 92.1%
viability, T/C [2]: 91.5%
viability, T/C [3]: 84.8%
viability, T/C [4]: 109%
viability, T/C [5]: 90%
viability, T/C [6]: 46.5%
viability, T/C [7]: 83%
viability, T/C [8]: 92%
viability, T/C [9]: 101%
viability, T/C [10]: 112%
viability, T/C [11]: 87.9%
viability, T/C [12]: 48.4%
viability, T/C [13]: 100%
viability, T/C [14]: 94.2%
viability, T/C [15]: 91.4%
viability, T/C [16]: 104%
viability, T/C [17]: 92.8%
viability, T/C [18]: 43.7%
viability, T/C [19]: 84.9%
viability, T/C [20]: 80.1%
viability, T/C [21]: 76.2%
viability, T/C [22]: 79.5%
viability, T/C [23]: 85.4%
viability, T/C [24]: 42.4%
viability, T/C [25]: 21.9%
viability, T/C [26]: 16.6%
viability, T/C [27]: 26.8%
viability, T/C [28]: 21.9%
viability, T/C [29]: 24.5%
viability, T/C [30]: 16%
viability, T/C [31]: 38.5%
viability, T/C [32]: 41.4%
viability, T/C [33]: 41.6%
viability, T/C [34]: 47.6%
viability, T/C [35]: 44.9%
viability, T/C [36]: 34.1%

Cc1cccc(N(C)C(=O)C2C(O)CCN2c2nc(C)cc(C(F)(F)F)c2C#N)c1 (stereo unspecified) + Cc1[nH]c2ccc(F)cc2c1-c1nc2c3cccnc3c3ncccc3c2[nH]1
IC50 (second compound 0.0316 µM): > 10 µM
IC50 (second compound 0.1 µM): > 10 µM
IC50 (second compound 0.316 µM): > 10 µM
IC50 (second compound 1 µM): > 10 µM
IC50 (second compound 3.16 µM): < 0.0316 µM
IC50 (second compound 10 µM): 3.92 µM
viability, T/C [1]: 113%
viability, T/C [2]: 94.4%
viability, T/C [3]: 95.6%
viability, T/C [4]: 95.9%
viability, T/C [5]: 100%
viability, T/C [6]: 69%
viability, T/C [7]: 105%
viability, T/C [8]: 106%
viability, T/C [9]: 93.7%
viability, T/C [10]: 90.3%
viability, T/C [11]: 81.9%
viability, T/C [12]: 77.8%
viability, T/C [13]: 97.4%
viability, T/C [14]: 95.3%
viability, T/C [15]: 91.9%
viability, T/C [16]: 91.4%
viability, T/C [17]: 102%
viability, T/C [18]: 80.7%
viability, T/C [19]: 91.7%
viability, T/C [20]: 77.7%
viability, T/C [21]: 91.8%
viability, T/C [22]: 74.6%
viability, T/C [23]: 90.5%
viability, T/C [24]: 79%
viability, T/C [25]: 23.7%
viability, T/C [26]: 18.9%
viability, T/C [27]: 30.2%
viability, T/C [28]: 25.2%
viability, T/C [29]: 20.3%
viability, T/C [30]: 22.3%
viability, T/C [31]: 47.4%
viability, T/C [32]: 59%
viability, T/C [33]: 48.1%
viability, T/C [34]: 60.5%
viability, T/C [35]: 48.8%
viability, T/C [36]: 44.3%

Cn1ncnc1[C@H]1c2n[nH]c(=O)c3cc(F)cc(c23)N[C@@H]1c1ccc(F)cc1 + Cc1[nH]c2ccc(F)cc2c1-c1nc2c3cccnc3c3ncccc3c2[nH]1
IC50 (second compound 0.0316 µM): > 0.316 µM
IC50 (second compound 0.1 µM): > 0.316 µM
IC50 (second compound 0.316 µM): > 0.316 µM
IC50 (second compound 1 µM): > 0.316 µM
IC50 (second compound 3.16 µM): < 0.000999 µM
IC50 (second compound 10 µM): < 0.000999 µM
viability, T/C (second compound 0.0316 µM, first compound 0.000999 µM): 97.1%
viability, T/C (second compound 0.0316 µM, first compound 0.00316 µM): 94.5%
viability, T/C (second compound 0.0316 µM, first compound 0.00999 µM): 93.2%
viability, T/C [1]: 101%
viability, T/C (second compound 0.0316 µM, first compound 0.0999 µM): 94.6%
viability, T/C [3]: 84.5%
viability, T/C (second compound 0.1 µM, first compound 0.000999 µM): 88.5%
viability, T/C (second compound 0.1 µM, first compound 0.00316 µM): 106%
viability, T/C (second compound 0.1 µM, first compound 0.00999 µM): 90%
viability, T/C [7]: 101%
viability, T/C (second compound 0.1 µM, first compound 0.0999 µM): 99.1%
viability, T/C [9]: 87.6%
viability, T/C (second compound 0.316 µM, first compound 0.000999 µM): 102%
viability, T/C (second compound 0.316 µM, first compound 0.00316 µM): 107%
viability, T/C (second compound 0.316 µM, first compound 0.00999 µM): 91.9%
viability, T/C [13]: 84.8%
viability, T/C (second compound 0.316 µM, first compound 0.0999 µM): 102%
viability, T/C [15]: 82.4%
viability, T/C (second compound 1 µM, first compound 0.000999 µM): 79%
viability, T/C (second compound 1 µM, first compound 0.00316 µM): 76.8%
viability, T/C (second compound 1 µM, first compound 0.00999 µM): 81%
viability, T/C [19]: 75%
viability, T/C (second compound 1 µM, first compound 0.0999 µM): 89.1%
viability, T/C [21]: 78.6%
viability, T/C (second compound 3.16 µM, first compound 0.000999 µM): 20.5%
viability, T/C (second compound 3.16 µM, first compound 0.00316 µM): 18.4%
viability, T/C (second compound 3.16 µM, first compound 0.00999 µM): 23.2%
viability, T/C [25]: 21.1%
viability, T/C (second compound 3.16 µM, first compound 0.0999 µM): 19.7%
viability, T/C [27]: 17.1%
viability, T/C (second compound 10 µM, first compound 0.000999 µM): 48.6%
viability, T/C (second compound 10 µM, first compound 0.00316 µM): 52.7%
viability, T/C (second compound 10 µM, first compound 0.00999 µM): 55.2%
viability, T/C [31]: 47.3%
viability, T/C (second compound 10 µM, first compound 0.0999 µM): 56.7%
viability, T/C [33]: 58.1%
